Data reported in article PMC8286840, “Identifying SARS-CoV-2 antiviral compounds by screening for small molecule inhibitors of Nsp3 papain-like protease” (Biochemical Journal, 2021).
Counter-ions that a name gives are not always drawn. Like-named read-outs stand apart in the source and are kept apart here.

Assays:
[1] = biological target: T1, SARS-CoV-2 PLpro (nsp3 1564–1878) (Severe acute respiratory syndrome coronavirus 2, UniProt P0DTD1); test: biochemical; parameters: FRET-quenched peptide (Pro3) cleavage by PLpro, 10 min pre-incubation, slope over 20 min, normalised to no-compound control; conditions: low concentration screen, read-out: % of control remaining
[2] = biological target: T1, SARS-CoV-2 PLpro (nsp3 1564–1878); test: biochemical; parameters: FRET-quenched peptide (Pro3) cleavage by PLpro, 10 min pre-incubation, slope over 20 min, normalised to no-compound control; conditions: high concentration screen, read-out: % of control remaining
Description: The plates were organized with columns 3–22 containing the compounds; the remaining columns were used for reaction controls including substrate only and substrate with enzyme but no compound (Figure 3Aii). The PLpro enzyme was pre-incubated with the compounds for 10 min, and then the reaction was initiated by the addition of substrate. […] We incubated the inhibitors with PLpro before the enzymatic reaction so that the slow-binding inhibitors will not be missed out [21]. […] Fluorescence was read on a Spark multimode microplate reader (Tecan) with an excitation wavelength at 330 nm and emission wavelength at 420 nm. […] An amount of 5 µl of the enzyme was pre-incubated with compounds for 10 min before the addition of 15 µl substrate. Fluorescence was monitored at 2 min for 20 min with 3 min intervals giving a total of seven readings.

## Cc1cc(OCCCc2c3n(c4c(-c5c(C)nn(C)c5C)c(Cl)ccc24)[C@H](C)CN(c2cn(C)c4ccc(C(=O)O)cc24)C3=O)cc(C)c1Cl [VU0661013]
[1]; Well no.=7066
  remaining activity at 1.25 µM: 105%
[2]; Well no.=7066
  remaining activity at 3.75 µM: 98.3%

## COc1ccc(CN2C(=O)C(=O)c3cc(OC(F)(F)F)ccc32)cc1 [VU 0238429]
[1]; Well no.=8702
  remaining activity at 1.25 µM: 97.3%
[2]; Well no.=8702
  remaining activity at 3.75 µM: 93.7%

## CCCCOc1ccc(C(=O)Nc2ccc(F)cc2F)cc1 [VU 0357121]
[1]; Well no.=4932
  remaining activity at 1.25 µM: 99.8%
[1]; Well no.=7857
  remaining activity at 1.25 µM: 105%
[2]; Well no.=4932
  remaining activity at 3.75 µM: 98.8%
[2]; Well no.=7857
  remaining activity at 3.75 µM: 107%

## COc1cc(NC(=O)c2ccccn2)ccc1Cl [VU 0361737]
[1]; Well no.=4837
  remaining activity at 1.25 µM: 98.5%
[2]; Well no.=4837
  remaining activity at 3.75 µM: 106%

## O=C(Nc1ccc(S(=O)(=O)Nc2ccccc2Cl)c(Cl)c1)c1ccccn1 [VU 0364439]
[1]; Well no.=4978
  remaining activity at 1.25 µM: 96.2%
[2]; Well no.=4978
  remaining activity at 3.75 µM: 96.2%

## O=C1C(=O)N(Cc2ccc(-c3ccccc3)cc2)c2ccc(OC(F)(F)F)cc21 [VU 0365114]
[1]; Well no.=8036
  remaining activity at 1.25 µM: 97.4%
[2]; Well no.=8036
  remaining activity at 3.75 µM: 94.8%

## CN1CCN(c2cc(-c3ccccc3)nc(N)n2)CC1 [VUF10460]
[1]; Well no.=7041
  remaining activity at 1.25 µM: 105%
[2]; Well no.=7041
  remaining activity at 3.75 µM: 105%

## COc1ccccc1NC(=O)Nc1nc(-c2cccnc2)nc2ccccc12 [VUF 5574]
[1]; Well no.=1384
  remaining activity at 1.25 µM: 101%
[2]; Well no.=1384
  remaining activity at 3.75 µM: 97.5%

## CN1CCN(c2nc3ccccc3nc2Cl)CC1 [VUF 10166]
[1]; Well no.=4831
  remaining activity at 1.25 µM: 99.1%
[2]; Well no.=4831
  remaining activity at 3.75 µM: 103%

## NC(=O)c1ccc(N(C(N)=O)c2c(F)cccc2F)nc1-c1ccc(F)cc1F [VX702]
[1]; Well no.=2943
  remaining activity at 1.25 µM: 104%
[2]; Well no.=2943
  remaining activity at 3.75 µM: 105%

## CC(C)(C)C#Cc1cc(N(C(=O)[C@H]2CC[C@H](C)CC2)[C@H]2CC[C@H](O)CC2)c(C(=O)O)s1 [VX-222]
[1]; Well no.=4903
  remaining activity at 1.25 µM: 97.1%
[2]; Well no.=4903
  remaining activity at 3.75 µM: 96.2%

## CC(C)(CO)c1cc2cc(NC(=O)C3(c4ccc5c(c4)OC(F)(F)O5)CC3)c(F)cc2n1C[C@@H](O)CO [VX-661]
[1]; Well no.=4780
  remaining activity at 1.25 µM: 97%
[2]; Well no.=4780
  remaining activity at 3.75 µM: 94.1%

## Cc1ccc(NC(=O)C2(c3ccc4c(c3)OC(F)(F)O4)CC2)nc1-c1cccc(C(=O)O)c1 [VX-809]
[1]; Well no.=4961
  remaining activity at 1.25 µM: 95.6%
[2]; Well no.=4961
  remaining activity at 3.75 µM: 95%

## Cc1ccc2c(=O)c3cccc(CC(=O)O)c3oc2c1C [Vadimezan]
[1]; Well no.=8465
  remaining activity at 1.25 µM: 104%
[2]; Well no.=8465
  remaining activity at 3.75 µM: 97.4%

## CC(C)[C@H](N)C(=O)OCCOCn1cnc2c(=O)nc(N)[nH]c21 [Valaciclovir]
[1]; Well no.=2012
  remaining activity at 1.25 µM: 98.7%
[2]; Well no.=2012
  remaining activity at 3.75 µM: 97.7%

## Cc1onc(-c2ccccc2)c1-c1ccc(S(N)(=O)=O)cc1 [Valdecoxib]
[1]; Well no.=4694
  remaining activity at 1.25 µM: 97.5%
[2]; Well no.=4694
  remaining activity at 3.75 µM: 95.9%

## CC(C)[C@H](N)C(=O)OCC(CO)OCn1cnc2c(=O)nc(N)[nH]c21 (stereo partly shown) [Valganciclovir (hydrochloride)]
[1]; Well no.=8044
  remaining activity at 1.25 µM: 94.6%
[2]; Well no.=8044
  remaining activity at 3.75 µM: 93.4%

## CC(C)[C@@H]1NC(=O)[C@H](C)OC(=O)[C@@H](C(C)C)NC(=O)[C@@H](C(C)C)OC(=O)[C@H](C(C)C)NC(=O)[C@H](C)OC(=O)[C@@H](C(C)C)NC(=O)[C@@H](C(C)C)OC(=O)[C@H](C(C)C)NC(=O)[C@H](C)OC(=O)[C@@H](C(C)C)NC(=O)[C@@H](C(C)C)OC1=O [Valinomycin]
[1]; Well no.=3631
  remaining activity at 1.25 µM: 99.9%
[2]; Well no.=3631
  remaining activity at 3.75 µM: 101%

## CCC(C)C(CC)C(N)=O (stereo not shown) [Valnoctamide]
[1]; Well no.=5429
  remaining activity at 1.25 µM: 103%
[2]; Well no.=5429
  remaining activity at 3.75 µM: 110%

## CCCC(CCC)C(=O)O [Valproic acid sodium]
[1]; Well no.=812
  remaining activity at 1.25 µM: 99.6%
[2]; Well no.=812
  remaining activity at 3.75 µM: 99.4%

## CCCC(CCC)C(=O)O [Valproic acid]
[1]; Well no.=1758
  remaining activity at 1.25 µM: 98.8%
[2]; Well no.=1758
  remaining activity at 3.75 µM: 100%

## CCCC(CCC)C(N)=O [Valpromide]
[1]; Well no.=5383
  remaining activity at 1.25 µM: 103%
[2]; Well no.=5383
  remaining activity at 3.75 µM: 109%

## CCCCC(=O)N(Cc1ccc(-c2ccccc2-c2nnn[nH]2)cc1)[C@H](C(=O)O)C(C)C [Valsartan]
[1]; Well no.=7542
  remaining activity at 1.25 µM: 94.7%
[1]; Well no.=8247
  remaining activity at 1.25 µM: 105%
[2]; Well no.=7542
  remaining activity at 3.75 µM: 98%
[2]; Well no.=8247
  remaining activity at 3.75 µM: 99.1%

## C/C=C/C[C@@H](C)C(=O)[C@H]1C(=O)N[C@@H](C(C)C)C(=O)N(C)CC(=O)N(C)[C@@H](CC(C)C)C(=O)N[C@@H](C(C)C)C(=O)N(C)[C@@H](CC(C)C)C(=O)N[C@@H](C)C(=O)N[C@H](C)C(=O)N(C)[C@@H](CC(C)C)C(=O)N(C)[C@@H](CC(C)C)C(=O)N(C)[C@@H](C(C)C)C(=O)N1C [Valspodar]
[1]; Well no.=8226
  remaining activity at 1.25 µM: 94.7%
[2]; Well no.=8226
  remaining activity at 3.75 µM: 94.7%

## CN[C@H](CC(C)C)C(=O)N[C@H]1C(=O)N[C@@H](CC(N)=O)C(=O)N[C@H]2C(=O)N[C@H]3C(=O)N[C@H](C(=O)N[C@H](C(=O)O)c4cc(O)cc(O)c4-c4cc3ccc4O)[C@H](O)c3ccc(c(Cl)c3)Oc3cc2cc(c3O[C@@H]2O[C@H](CO)[C@@H](O)[C@H](O)[C@H]2O[C@H]2C[C@](C)(N)[C@H](O)[C@H](C)O2)Oc2ccc(cc2Cl)[C@H]1O [Vancomycin (hydrochloride)]
[1]; Well no.=7882
  remaining activity at 1.25 µM: 103%
[2]; Well no.=7882
  remaining activity at 3.75 µM: 98.3%

## COc1cc2/c(=N/c3ccc(Br)cc3F)nc[nH]c2cc1OCC1CCN(C)CC1 [Vandetanib]
[1]; Well no.=2799
  remaining activity at 1.25 µM: 101%
[2]; Well no.=2799
  remaining activity at 3.75 µM: 101%

## CCN(CC)C(=O)c1ccc(O)c(OC)c1 [Vanillic acid diethylamide]
[1]; Well no.=644
  remaining activity at 1.25 µM: 97.3%
[2]; Well no.=644
  remaining activity at 3.75 µM: 102%

## COc1cc(C=O)ccc1O [Vanillin]
[1]; Well no.=7455
  remaining activity at 1.25 µM: 103%
[2]; Well no.=7455
  remaining activity at 3.75 µM: 106%

## CCCc1nc(C)c2c(O)nc(-c3cc(S(=O)(=O)N4CCN(CC)CC4)ccc3OCC)nn12 [Vardenafil HCl Trihydrate]
[1]; Well no.=8292
  remaining activity at 1.25 µM: 101%
[2]; Well no.=8292
  remaining activity at 3.75 µM: 94.4%

## CCCc1nc(C)c2c(=O)nc(-c3cc(S(=O)(=O)N4CCN(CC)CC4)ccc3OCC)[nH]n12 [Vardenafil]
[1]; Well no.=1780
  remaining activity at 1.25 µM: 97.7%
[2]; Well no.=1780
  remaining activity at 3.75 µM: 97.8%

## c1cnc2cc3c(cc2n1)[C@@H]1CNC[C@H]3C1 [Varenicline tartrate]
[1]; Well no.=4855
  remaining activity at 1.25 µM: 98.1%
[2]; Well no.=4855
  remaining activity at 3.75 µM: 103%

## CCc1c(C(=O)C(N)=O)c2c(OCC(=O)O)cccc2n1Cc1ccccc1 [Varespladib (LY315920)]
[1]; Well no.=4663
  remaining activity at 1.25 µM: 105%
[2]; Well no.=4663
  remaining activity at 3.75 µM: 104%

## COC(=O)c1ccc2c(C(=Nc3ccc(N(C)C(=O)CN4CCN(C)CC4)cc3)c3ccccc3)c(O)[nH]c2c1 [Vargatef]
[1]; Well no.=2847
  remaining activity at 1.25 µM: 103%
[2]; Well no.=2847
  remaining activity at 3.75 µM: 104%
